# Target: T1, PARP-1 (Homo sapiens, UniProt P09874)
# T1 construct: gene PARP1
# Assay: PARP-1 colorimetric assay kit (BPS Bioscience […])
# Format: biochemical
# T1 sequence (P09874 2-1014): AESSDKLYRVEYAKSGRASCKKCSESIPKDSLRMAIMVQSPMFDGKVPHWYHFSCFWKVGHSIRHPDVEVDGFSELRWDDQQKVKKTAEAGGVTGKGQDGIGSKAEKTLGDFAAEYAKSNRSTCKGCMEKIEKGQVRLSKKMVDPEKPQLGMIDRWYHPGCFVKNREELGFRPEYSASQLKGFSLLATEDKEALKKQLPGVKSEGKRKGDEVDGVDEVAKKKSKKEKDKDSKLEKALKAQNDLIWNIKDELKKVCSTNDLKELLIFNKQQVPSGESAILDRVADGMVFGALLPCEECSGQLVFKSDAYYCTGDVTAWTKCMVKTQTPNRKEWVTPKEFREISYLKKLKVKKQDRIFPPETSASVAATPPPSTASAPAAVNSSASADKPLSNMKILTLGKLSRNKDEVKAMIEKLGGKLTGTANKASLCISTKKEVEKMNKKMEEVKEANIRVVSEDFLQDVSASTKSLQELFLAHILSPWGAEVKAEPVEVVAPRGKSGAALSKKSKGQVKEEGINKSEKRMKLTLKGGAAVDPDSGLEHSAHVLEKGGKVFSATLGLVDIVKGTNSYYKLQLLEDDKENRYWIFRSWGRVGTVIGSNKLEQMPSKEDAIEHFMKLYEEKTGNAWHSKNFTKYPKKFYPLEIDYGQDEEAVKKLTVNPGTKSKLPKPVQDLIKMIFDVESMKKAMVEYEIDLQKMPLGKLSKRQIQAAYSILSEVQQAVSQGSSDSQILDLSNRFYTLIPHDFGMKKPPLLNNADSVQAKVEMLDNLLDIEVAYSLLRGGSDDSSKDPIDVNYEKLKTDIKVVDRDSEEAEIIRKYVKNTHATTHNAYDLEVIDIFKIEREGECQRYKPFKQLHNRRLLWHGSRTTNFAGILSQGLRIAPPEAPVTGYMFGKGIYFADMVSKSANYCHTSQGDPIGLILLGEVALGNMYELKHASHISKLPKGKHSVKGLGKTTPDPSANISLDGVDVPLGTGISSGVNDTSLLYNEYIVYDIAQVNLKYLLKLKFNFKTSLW
structure (smiles),measurement,value
C/C=C(/C)C(=O)OC1=C(C(C)CCC=C(C)C)C(=O)C=C(C)C1=O (stereo not shown) [perezone angelate],IC50,5.25 µM

# — article PMC8911992, “In Vitro and Computational Studies of Perezone and Perezone Angelate as Potential Anti-Glioblastoma Multiforme Agents” (Molecules, 2022)
